In assay [1] the target is Avi-humanTEAD4 217-434 / Cy5 labeled humanYAP 60-100 (Homo sapiens (Human), UniProt Q15561). Briefly: TR-FRET YAP-TEAD4 in-vitro biochemical assay. Format: binding. The note with it: 1 nM Avi-humanTEAD4 217-434, 20 nM Cy5-humanYAP 60-100, 1 h room temperature.
In assay [2] the test system is NCI-H2052 Tet-On shYAP_2371 pLenti6 MCAT_Luc cells (YAP-dependent transcription). The assay can be described thus: YAP reporter gene activity assay (MCAT-luciferase), NCI-H2052. In kind it is cell-based. The note with it: 24 hours incubation, BrightGlo luminescence. The method, boiled down:
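Luminescence was read 5 min after BrightGlo, following 24 h at 37 °C of compound exposure (eleven 2-fold dilutions, DMSO normalized to 0.1%). Cells were NCI-H2052 with a YAP-responsive MCAT-luciferase and a Tet-inducible shRNA against YAP1 3′UTR. Cell-free background was removed, values were normalized to vehicle, and IC50 was fitted with four parameters.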

In assay [3] the test system is NCI-H2052 Tet-On shYAP_2371 pLenti6 MCAT_Luc cells. Briefly: Proliferation assay (resazurin), NCI-H2052. Conditions: 72 hours incubation. In kind it is cell-based. In a few lines: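 The NCI-H2052 line carries a Tet-inducible shRNA against the YAP1 3′UTR and an MCAT luciferase reporter. The day after seeding, it received eleven 2-fold compound dilutions at 0.1% DMSO, and viability was read by resazurin fluorescence.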
In general terms: Alamar Blue is a resazurin reagent that responds to reducing activity.

In assay [4] the test system is MKN-45/Ubc-luc cells. The assay can be described thus: Proliferation assay (resazurin), MKN-45. Format: cell-based. Conditions: 72 hours incubation.
Assay [5] relates to MKN-45/Ubc-luc cells. The assay can be described thus: Reporter gene specificity control (Ubc-luciferase), MKN-45.
[6] abbreviates: Homo sapiens, MKN-45, 24 h, read-out: Reporter gene assay MKN-45 IC50 [μM], MKN-45/Ubc-luc cells (YAP deleted, specificity control), 24 hours incubation.

Each structure is given as a SMILES string. Where two headings read alike, the source gives them in different places. Where only a bound is given, the exact number is not on record here.

Chain of Avi-humanTEAD4 217-434 / Cy5 labeled humanYAP 60-100 (Q15561 217-434): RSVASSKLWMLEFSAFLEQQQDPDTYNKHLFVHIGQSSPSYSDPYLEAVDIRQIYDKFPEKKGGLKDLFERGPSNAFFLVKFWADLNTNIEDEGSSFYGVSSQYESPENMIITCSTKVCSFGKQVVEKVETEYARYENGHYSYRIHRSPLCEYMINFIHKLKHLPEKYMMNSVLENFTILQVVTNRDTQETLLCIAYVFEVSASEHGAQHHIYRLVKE

Broadly, the GI50 is the concentration giving 50% growth inhibition. Low readings indicate more potent growth inhibition, high ones less potent growth inhibition. Take `NC(=O)c1ccc(OC(F)F)c(F)c1-c1c(Cl)ccc2c1[C@H](O)[C@@](CNC1CCC1)(c1ccccc1)O2` (atropisomer, axis not shown) [Example 96, 2-((2S,3S,4S)-5-Chloro-2-((cyclobutylamino)methyl)-3-hydroxy-2-phenyl-2,3-dihydrobenzofuran-4-yl)-4-(difluoromethoxy)-3-fluorobenzamide]: the IC50 in assay [1] is 5 nM; in assay [2] (Homo sapiens, NCI-H2052, 24 h), 84 nM; in assay [5] (setting [6]), above 10 µM. The GI50 was 188 nM in assay [3] (Homo sapiens, NCI-H2052, 72 h) and above 10000 nM in assay [4] (Homo sapiens).
In the same order, the values of `C[C@H](O)COc1ccc(C(N)=O)c(-c2c(Cl)c(F)cc3c2[C@H](C)[C@@](CN[C@H]2CC[C@@](C)(O)CC2)(c2ccccc2)O3)c1F` (atropisomer, axis not shown) [Example 114b, 2-((2S,3S,4S)-5-chloro-6-fluoro-2-((((cis)-4-hydroxy-4-methylcyclohexyl)amino)methyl)-3-methyl-2-phenyl-2,3-dihydrobenzofuran-4-yl)-3-fluoro-4-((S)-2-hydroxypropoxy)benzamide] are 2 nM, 23 nM, above 10 µM, 34 nM and above 10000 nM.
Taken in the same sequence, the figures for `CN(C)C(=O)C1CCC(NC[C@@]2(c3ccccc3)Cc3c(cc(F)c(Cl)c3-c3c(C(N)=O)ccc(OC(F)F)c3F)O2)CC1` (single isomer, unassigned) [Example 58a] were 4 nM, 67 nM, above 10 µM, 125 nM and above 10000 nM.
Taken in the same sequence, the figures for `CNC(=O)c1cnc(OCCO)c(F)c1-c1c(Cl)c(F)cc2c1C[C@](c1ccccc1)([C@@H]1CCCN1)N2` (atropisomer, axis not shown) [Example 173, 4-((2S,4S)-5-Chloro-6-fluoro-2-phenyl-2-((S)-pyrrolidin-2-yl)indolin-4-yl)-5-fluoro-6-(2-hydroxyethoxy)-N-methylnicotinamide] were 14 nM, 187 nM, above 20 µM, 158 nM and above 20000 nM.
With `NC(=O)c1ccc(OC(F)F)c(F)c1-c1c(Cl)ccc2c1[C@H](O)[C@@](CN[C@H]1CC[C@@H](O)CC1)(c1ccccc1)O2` (relative stereo) [Example 94b, 2-((2S,3S,4S)-5-chloro-3-hydroxy-2-((((cis)-4-hydroxycyclohexyl)amino)methyl)-2-phenyl-2,3-dihydrobenzofuran-4-yl)-4-(difluoromethoxy)-3-fluorobenzamide], the IC50 is 3 nM in assay [1]; 83 nM in assay [2]; above 10 µM in assay [5] (read-out: Reporter gene assay MKN-45 IC50, MKN-45/Ubc-luc cells (YAP deleted, specificity control), 24 hours incubation). In addition, the GI50 in assay [3] was 101 nM; in assay [4], above 10000 nM.
As for `CNC[C@]1(c2ccccc2)Oc2cc(F)c(Cl)c(-c3c(C(N)=O)ccc(OC)c3F)c2[C@@H]1CO` (atropisomer, axis not shown) [Example 147, 2-((2S,3R,4S)-5-Chloro-6-fluoro-3-(hydroxymethyl)-2-((methylamino)methyl)-2-phenyl-2,3-dihydrobenzofuran-4-yl)-3-fluoro-4-methoxybenzamide], the IC50 is 1 nM in assay [1]; 11 nM in assay [2] (Homo sapiens, NCI-H2052, 24 h); above 3.3 µM in assay [5] (setting [6]). Moreover, the GI50 in assay [3] (Homo sapiens, NCI-H2052, 72 h) was 5 nM; in assay [4] (Homo sapiens), above 3300 nM.
In the same order, the values of `CNC[C@@]1(c2ccccc2)Cc2c(ccc(Cl)c2-c2c(C(N)=O)ccc(OC)c2F)O1` (atropisomer, axis not shown) [Example 21, 2-((2S,4S)-5-Chloro-2-((methylamino)methyl)-2-phenyl-2,3-dihydrobenzofuran-4-yl)-3-fluoro-4-methoxybenzamide] are 4 nM, 154 nM, above 10 µM, 247 nM and above 10000 nM.

Source of the values: patent US12083101B2, “Biaryl derivatives as YAP/TAZ-TEAD protein-protein interaction inhibitors” (Novartis AG, priority 2020, dated 2024).
